{"source": "ChEMBL document CHEMBL3045613", "about": "“Effects of sublethal glyphosate rates on fresh market tomato” (Crop Prot, 2007)", "format_in_all_cases": "organism-based", "design_in_all_cases": "scale not given: the % may be the effect or the level left", "key": {"Solanum lycopersicum [1]": {"system": "Solanum lycopersicum", "test": "Phytotoxicity against Solanum lycopersicum (tomato) plant assessed as decrease in vigour at 50 mg/L applied 1 days prior to transplantation for 10 secs measured after 4 weeks relative to untreated-control", "conditions": "in vivo"}, "Solanum lycopersicum [2]": {"system": "Solanum lycopersicum", "test": "Phytotoxicity against Solanum lycopersicum (tomato) plant assessed as decrease in plant height at 100 mg/L applied 1 days prior to transplantation for 10 secs measured after 4 weeks relative to untreated-control", "conditions": "in vivo"}, "Solanum lycopersicum [3]": {"system": "Solanum lycopersicum", "test": "Phytotoxicity against Solanum lycopersicum (tomato) plant assessed as decrease in vigour at 100 mg/L applied 1 days prior to transplantation for 10 secs measured after 4 weeks relative to untreated-control", "conditions": "in vivo"}, "Solanum lycopersicum [4]": {"system": "Solanum lycopersicum", "test": "Phytotoxicity against Solanum lycopersicum (tomato) plant assessed as decrease in vigour at 150 to 200 mg/L applied 1 days prior to transplantation for 10 secs measured after 4 weeks relative to untreated-control", "conditions": "in vivo"}, "Solanum lycopersicum [5]": {"system": "Solanum lycopersicum", "test": "Phytotoxicity against Solanum lycopersicum (tomato) plant assessed as decrease in plant height at 150 mg/L applied 1 days prior to transplantation for 10 secs measured after 4 weeks relative to untreated-control", "conditions": "in vivo, other"}, "Solanum lycopersicum [6]": {"system": "Solanum lycopersicum", "test": "Phytotoxicity against Solanum lycopersicum (tomato) plant assessed as decrease in vigour at 100 mg/L applied 1 days prior to transplantation for 10 secs measured after 2 weeks relative to untreated-control", "conditions": "in vivo"}, "Solanum lycopersicum [7]": {"system": "Solanum lycopersicum", "test": "Phytotoxicity against Solanum lycopersicum (tomato) plant assessed as decrease in vigour at 25 mg/L applied 1 days prior to transplantation for 10 secs measured after 4 weeks relative to untreated-control", "conditions": "in vivo"}, "Solanum lycopersicum [8]": {"system": "Solanum lycopersicum", "test": "Phytotoxicity against Solanum lycopersicum (tomato) plant assessed as decrease in plant height at 25 mg/L applied 1 days prior to transplantation for 10 secs measured after 4 weeks relative to untreated-control", "conditions": "in vivo"}, "Solanum lycopersicum [9]": {"system": "Solanum lycopersicum", "test": "Phytotoxicity against Solanum lycopersicum (tomato) plant assessed as decrease in vigour at 25 mg/L applied 1 days prior to transplantation for 10 secs measured after 2 weeks relative to untreated-control", "conditions": "in vivo"}, "Solanum lycopersicum [10]": {"system": "Solanum lycopersicum", "test": "Phytotoxicity against Solanum lycopersicum (tomato) plant assessed as decrease in marketable yeild at 150 mg/L applied 1 days prior to transplantation for 10 secs measured after 4 weeks relative to untreated-control", "conditions": "in vivo"}, "Solanum lycopersicum [11]": {"system": "Solanum lycopersicum", "test": "Phytotoxicity against Solanum lycopersicum (tomato) plant assessed as decrease in marketable yeild at 25 mg/L applied 1 days prior to transplantation for 10 secs measured after 4 weeks relative to untreated-control", "conditions": "in vivo"}, "Solanum lycopersicum [12]": {"system": "Solanum lycopersicum", "test": "Phytotoxicity against Solanum lycopersicum (tomato) plant assessed as decrease in plant height at 200 mg/L applied 1 days prior to transplantation for 10 secs measured after 4 weeks relative to untreated-control", "conditions": "in vivo"}}, "data": [{"smiles": "O=C(O)CNCP(=O)(O)O", "note": "[GLYPHOSATE]", "values": [{"measurement": "Activity", "setting": "Solanum lycopersicum [1]", "result": 36, "unit": "%"}, {"measurement": "Activity", "setting": "Solanum lycopersicum [2]", "result": 65, "unit": "%"}, {"measurement": "Activity", "setting": "Solanum lycopersicum [3]", "result": 58, "unit": "%"}, {"measurement": "Activity", "setting": "Solanum lycopersicum [4]", "result": "<= 15%"}, {"measurement": "Activity", "setting": "Solanum lycopersicum [5]", "result": 72, "unit": "%"}, {"measurement": "Activity", "setting": "Solanum lycopersicum [6]", "result": "<= 50%"}, {"measurement": "Activity", "setting": "Solanum lycopersicum [7]", "result": 36, "unit": "%"}, {"measurement": "Activity", "setting": "Solanum lycopersicum [8]", "result": 29, "unit": "%"}, {"measurement": "Activity", "setting": "Solanum lycopersicum [9]", "result": 78, "unit": "%"}, {"measurement": "Activity", "setting": "Solanum lycopersicum [10]", "result": "> 98", "unit": "%"}, {"measurement": "Activity", "setting": "Solanum lycopersicum [11]", "result": 41, "unit": "%"}, {"measurement": "Activity", "setting": "Solanum lycopersicum [12]", "result": 75, "unit": "%"}]}]}
